Experimental data reported in patent publication US20250195520A1, “COMBINATION THERAPY USING A PTPN11 INHIBITOR AND AN EGFR INHIBITOR” (NAVIRE PHARMA, INC., priority 2021, published 2025).
“Also recorded” adds a separate entry of the source.

How the values were obtained:
[1] = tested on: NCI-H1975 (C797S+) tumors; experiment: NCI-H1975 (C797S+) tumor model, tumor volume; assay type: in vivo, mouse
[2] = tested on: DUSP6 mRNA in HCC827-ER1 tumors; experiment: In vivo pharmacodynamic assay, Taqman qRT-PCR of DUSP6 in HCC827-ER1 xenograft tumors; parameters: species or system mouse
Method: In vivo modeling, treatment and data analysis. […] Dosing started ˜3 weeks after the subcutaneous implantation of the tumor cells. Dosing volume was 5 mL/kg for each compound, and was adjusted based on individual mouse weight. Dosing and sample harvesting followed the schedule below. There was a 6-hour interval between the morning dose and the afternoon dose, and tumor/plasma samples were harvested at three timepoints during the 24-hour dosing cycle.

[3] = molecular target: T1, PTPN11-E76K mutant enzyme (Homo sapiens, UniProt Q06124, E76K); conditions: e.g. PTPN11-E76K mutant enzyme; stated as 'in certain embodiments'; read-out: IC50 for inhibition of PTPN11; cited from earlier work
T1 sequence (Q06124 1-593 E76K): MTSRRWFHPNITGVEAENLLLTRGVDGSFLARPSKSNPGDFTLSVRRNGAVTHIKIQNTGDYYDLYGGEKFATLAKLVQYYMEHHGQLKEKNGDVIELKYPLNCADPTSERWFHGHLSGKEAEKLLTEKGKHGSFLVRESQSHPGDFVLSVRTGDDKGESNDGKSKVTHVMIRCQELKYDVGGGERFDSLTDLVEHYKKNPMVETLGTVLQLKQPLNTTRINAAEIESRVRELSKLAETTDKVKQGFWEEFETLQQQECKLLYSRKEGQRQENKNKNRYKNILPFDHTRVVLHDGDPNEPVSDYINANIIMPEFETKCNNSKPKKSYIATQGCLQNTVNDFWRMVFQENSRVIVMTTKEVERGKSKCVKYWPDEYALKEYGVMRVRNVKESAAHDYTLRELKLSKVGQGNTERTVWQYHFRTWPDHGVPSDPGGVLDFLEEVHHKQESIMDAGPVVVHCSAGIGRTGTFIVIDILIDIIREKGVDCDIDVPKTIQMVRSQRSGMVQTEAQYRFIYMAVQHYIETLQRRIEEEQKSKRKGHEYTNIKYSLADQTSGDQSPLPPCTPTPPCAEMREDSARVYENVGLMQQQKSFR

HCC4006 cells [4] = experiment: In vitro 3-day proliferation assay (CellTiter-Glo 2.0), HCC4006; assay type: cell-based; conditions: Homo sapiens, 72 h, HCC4006 parental cells
Method: (§1) Cell lines. The HCC4006 cell line was purchased from ATCC. […] The cells were cultured in RPMI-1640 containing 4 mM glutamax (Thermo Fisher #72400-120)+10% fetal bovine serum (FBS, Sigma #F2442) in 37° C. tissue culture incubator with 5% CO2 (NUAIRE, NU-5510).
(§2) In vitro 3-day proliferation assay. HCC4006 or HCC4006-OsiR cells were plated in 96-well plates (Corning #3603) at 1,500 cells per well in 100 μL of media (RPMI-1640+10% FBS) and allowed to attach overnight. […] Final DMSO concentration was 0.1%. After 3 days of treatment, viable cell numbers were determined using CellTiter-Glo 2.0 cell viability assay (Promega #G9241).
(§3) CellTiter-Glo 2.0 cell viability assay. CellTiter-Glo 2.0 cell viability assay (Promega #G9241) was used to determine the relative viable cell number, following manufacturer's protocols. Briefly, 100 μL CellTiter-Glo reagent was added to each well in the 96-well plate. The plate was put on a VWR advanced 3500 orbital shaker (VWR #89032-096) at 100 rpm shaking for 5 min at room temperature, then incubated at room temperature for 15 min, protected from the light. Afterwards, luminescence was quantified using a PheraStar plate reader (BMG Labtech). The luminescence readings were normalized to the average of DMSO treated samples of each cell line, using Microsoft Excel. Data were plotted in GraphPad Prism 8.0. Non-linear fit was used to generate the dose response curve. […]

HCC4006-OsiR cells [5] = experiment: In vitro 3-day proliferation assay (CellTiter-Glo 2.0), HCC4006-OsiR; assay type: cell-based, human
Method: as §1, §2, §3

HCC4006-OsiR cells [6] = experiment: In vitro clonogenic assay (crystal violet, Bliss score), HCC4006-OsiR; assay type: cell-based, human; conditions: 14-day clonogenic assay
Method: (§4) In vitro clonogenic assay. […] Compounds were prediluted in media at 4x the final concentration, and the final DMSO concentration was 0.2% in 1 mL of media per 24-well. After 12˜14 days of treatment, the plates were stained with crystal violet solution.
(§5) Crystal violet staining, quantification and Bliss score calculation. The 0.1% crystal violet staining solution was prepared by mixing 100 mL of 1% crystal violet solution (Sigma #V5265), 100 mL of 100% ethanol and 800 mL of ddH2O. […] After removal of DPBS, 0.5 mL of 0.1% crystal violet staining solution was added to each 24-well. The plates were incubated at room temperature for 30 min. The staining solution was removed from wells and discarded. Each well was then washed with 1 mL of ddH2O. Afterwards, the plates were dipped in a large bucket filled with tap water 2˜4 times until the supernatant became colorless. […]
(§6) The OD590 readings (multiplied by the dilution factor) were normalized to the average of DMSO treated samples, using Microsoft Excel. The Bliss expectation was calculated with the equation (A+B)−A×B/100, where A and B were the percentage growth inhibition induced by agents A and B at a given dose. Bliss score is the difference between the detected growth inhibition (%) caused by the combination of the two agents and the bliss expectation. […]

HCC4006 cells [7] = experiment: In vitro clonogenic assay (crystal violet, Bliss score), HCC4006; assay type: cell-based; conditions: Homo sapiens, 336 h; HCC4006, 14-day clonogenic assay
Method: as §4, §5, §6

SMILES	tumor growth (tumor volume) [1]	suppression of DUSP6 mRNA levels ([2]; 6-hour and 8-hour after formula (10b) dosing, 100 mg/kg)	suppression of DUSP6 mRNA levels ([2]; across the three timepoints (best suppression), osimertinib 5 mg/kg, formula (10b) 100 mg/kg)	IC50 [3]	IC50 (HCC4006 cells [4])	anti-proliferative effect (HCC4006-OsiR cells [5]; 1,000 nM (the highest concentration tested), HCC4006-OsiR, 3-day)	IC50 (HCC4006-OsiR cells [5]; Homo sapiens, 72 h, HCC4006-OsiR cells, 3-day proliferation assay)	shift in IC50, HCC4006-OsiR compared with HCC4006 parental cells (HCC4006-OsiR cells [6])	IC50 (HCC4006-OsiR cells [6]; Homo sapiens, 336 h, HCC4006-OsiR)	IC50 (HCC4006 cells [7])
Cc1c(N2CCC3(CC2)CO[C@@H](C)[C@H]3N)nc(C)n(-c2cccc(Cl)c2Cl)c1=O (atropisomer, axis not shown; (Ra)) [Formula (10b), 6-((3S,4S)-4-amino-3-methyl-2-oxa-8-azaspiro[4.5]decan-8-yl)-3-(Ra)-(2,3-dichlorophenyl)-2,5-dimethylpyrimidin-4 (3H)-one]	suppresses the growth; also recorded: robust tumor regression	over 90%	suppresses DUSP6 mRNA levels	≤ 50 nM	–	–	–	–	–	–
C=CC(=O)Nc1cc(Nc2nccc(-c3cn(C)c4ccccc34)n2)c(OC)cc1N(C)CCN(C)C [Osimertinib]	–	–	–	–	27 ± 7.9 nM	no anti-proliferative effect	> 1000 nM	20 fold	257 ± 241 nM	12.2 ± 2.5 nM
